Where a name gives a salt, the structure may show the parent alone.
Molecular target: T1, Recombinant human M3 receptor (Homo sapiens, UniProt P20309)
T1 construct: expressed in transfected cells; host or cells: CHO-K1 cells (membranes)
Assay: biochemical
Format: binding
Details: SPA format; read-out: M3 Ki (SPA format)
Procedure: Recombinant human M3 receptor was expressed in CHO-K1 cells. Cell membranes were prepared and binding of [3H]-N-methyl scopolamine ([3H]-NMS) and compounds was assessed by a scintillation proximity assay (SPA). The incubation time was 16 hours at room temperature in the presence of 1% (v/v) DMSO. The assay was performed in white 96 well clear-bottomed NBS plates (Corning). Prior to the assay, the CHO cell membranes containing M3 receptor were coated onto SPA WGA (Wheat germ agglutinin) beads (GE Healthcare). Non specific binding was determined in the presence of 1 μM Atropine.
Radioactivity was measured on a Microbeta scintillation counter (PerkinElmer) using a 3H protocol with a 2 minutes per well read time. […] Concentration dependent inhibition of [3H]-NMS binding by compounds was expressed as pIC50.

T1 sequence (P20309 whole entry): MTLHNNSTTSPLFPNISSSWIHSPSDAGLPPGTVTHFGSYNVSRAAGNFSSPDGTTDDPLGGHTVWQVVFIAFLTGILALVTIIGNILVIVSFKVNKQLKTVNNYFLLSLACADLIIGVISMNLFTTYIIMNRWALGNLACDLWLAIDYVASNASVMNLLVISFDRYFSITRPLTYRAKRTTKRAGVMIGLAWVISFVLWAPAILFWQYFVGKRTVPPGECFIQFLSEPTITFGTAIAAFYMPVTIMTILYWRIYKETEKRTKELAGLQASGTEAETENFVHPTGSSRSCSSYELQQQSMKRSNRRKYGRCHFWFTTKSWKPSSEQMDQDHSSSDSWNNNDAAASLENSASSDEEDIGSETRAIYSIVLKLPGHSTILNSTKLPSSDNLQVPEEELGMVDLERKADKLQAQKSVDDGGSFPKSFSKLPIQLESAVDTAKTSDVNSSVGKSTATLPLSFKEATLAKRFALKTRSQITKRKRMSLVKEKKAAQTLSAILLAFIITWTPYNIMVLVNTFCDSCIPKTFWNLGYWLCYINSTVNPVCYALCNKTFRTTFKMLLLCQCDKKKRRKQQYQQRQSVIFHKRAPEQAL

Structure (SMILES)	Ki
O[C@](c1ccccc1)(c1ncc(C[N+]23CCC(CC2)[C@H](CSc2ccccc2)C3)o1)C1CCCCC1 [Example 43, (S)-1-[2-((R)—Cyclohexyl-hydroxy-phenyl-methyl)-oxazol-5-ylmethyl]-3-phenylsulfanylmethyl-1-azonia-bicyclo[2.2.2]octane; bromide]	< 5 nM
O[C@](c1ccccc1)(c1ncc(C[N+]23CCC(CC2)[C@@H](SC2CCCCC2)C3)o1)C1CCCCC1 [Example 119, (R)-1-[2-((R)—Cyclohexyl-hydroxy-phenyl-methyl)-oxazol-5-ylmethyl]-3-cyclohexylsulfanyl-1-azonia-bicyclo[2.2.2]octane; bromide]	< 5 nM
O[C@](c1ccccc1)(c1ncc(C[N+]23CCC(CC2)C(Sc2ccccc2)C3)o1)C1CCCCC1 (stereo partly drawn) [Example 69, 1-[2-(R)-cyclohexyl-hydroxy-phenyl-methyl)-oxazol-5-ylmethyl]-3-phenylsulfanyl-1-azonia-bicyclo[2.2.2]octane; formate]	< 5 nM
O[C@](c1ccccc1)(c1ncc(C[N+]23CCC(CC2)[C@@H](CSc2ccccc2)C3)o1)C1CCCCC1 [Example 100, (R)-1-[2-((R)—Cyclohexyl-hydroxy-phenyl-methyl)-oxazol-5-ylmethyl]-3-phenylsulfanylmethyl-1-azonia-bicyclo[2.2.2]octane; bromide]	< 5 nM
OC(c1ccccc1)(c1ccccc1)c1noc(C[N+]23CCC(CC2)[C@@H](Oc2cccs2)C3)n1 [Example 116, (R)-1-[3-(Hydroxy-diphenyl-methyl)-[1,2,4]oxadiazol-5-ylmethyl]-3-(thiophen-2-yloxy)-1-azonia-bicyclo[2.2.2]octane; chloride]	< 5 nM
OC(c1ccccc1)(c1ccccc1)c1ncc(C[N+]23CCC(CC2)C(CCc2ccccc2)C3)o1 (centres unmarked) [Example 37, 1-[2-(Hydroxy-diphenyl-methyl)-oxazol-5-ylmethyl]-3-phenethyl-1-azonia-bicyclo[2.2.2]octane; bromide]	< 5 nM
OC(c1ccccc1)(c1ncc(C[N+]23CCC(CC2)[C@@H](OCc2ccccc2)C3)o1)C1CCC1 (single isomer, unassigned) [Example 50, formate]	< 5 nM
OC(c1ccccc1)(c1ccccc1)c1noc(C[N+]23CCC(CC2)[C@@H](Oc2ccc4c(c2)OCO4)C3)n1 [Example 135, (R)-3-(Benzo[1,3]dioxol-5-yloxy)-1-[3-hydroxy-diphenyl-methyl)-[1,2,4]oxadiazol-5-ylmethyl]-1-azonia-bicyclo[2.2.2]octane; chloride]	< 5 nM
O[C@](c1ccccc1)(c1ncc(C[N+]23CCC(CC2)[C@H](SCc2ccccc2)C3)o1)C1CCCCC1 [Example 40, (S)-3-Benzylsulfanyl-1-[2-((R)-cyclohexyl-hydroxy-phenyl-methyl)-oxazol-5-ylmethyl]-1-azonia-bicyclo[2.2.2]octane; bromide]	< 5 nM
O[C@](c1ccccc1)(c1ncc(C[N+]23CCC(COc4ccccc4)(CC2)CC3)o1)C1CCCCC1 [Example 55, 1-[2 ((R)—Cyclohexyl-hydroxy-phenyl-methyl)-oxazol-5-ylmethyl]-4-phenoxymethyl-1-azonia-bicyclo[2.2.2]octane; bromide]	< 5 nM
OC(c1ccccc1)(c1noc(C[N+]23CCC(CC2)[C@@H](Oc2cccc(F)c2)C3)n1)C1CCCCC1 (single isomer, unassigned) [Example 128]	< 5 nM
O[C@](c1ccccc1)(c1ncc(C[N+]23CCC(CC2)[C@H](CSc2ccc(Cl)cc2)C3)o1)C1CCCCC1 [Example 110, (S)-3-(4-Chloro-phenylsulfanylmethyl)-1-[2-((R)cyclohexyl-hydroxy-phenyl-methyl)-oxazol-5-ylmethyl]-1-azonia-bicyclo[2.2.2]octane; bromide]	< 5 nM
OC(c1ccccc1)(c1noc(C[N+]23CCC(CC2)[C@@H](Sc2ccccc2)C3)n1)C1CCCCC1 (single isomer, unassigned) [Example 131]	< 5 nM
OC(c1ccccc1)(c1noc(C[N+]23CCC(CC2)C(CSc2cccc(F)c2)C3)n1)C1CCCCC1 (single isomer, unassigned) [Example 133]	< 5 nM
OC(c1ccccc1)(c1cc(C[N+]23CCC(CC2)[C@@H](OCc2ccc(F)cc2)C3)on1)C1CCCCC1 (single isomer, unassigned) [Example 54]	< 5 nM
OC(c1ccccc1)(c1ccccc1)c1ncc(C[N+]23CCC(CC2)[C@@H](Oc2cccc(C(F)(F)F)c2)C3)o1 [Example 75, (R)-1-[2-[Hydroxy-diphenyl-methyl)-oxazol-5-ylmethyl]-3-(3-trifluoromethyl-phenoxy)-1-azonia-bicyclo[2.2.2]octane; bromide]	< 5 nM

Structure (SMILES)	Ki
O[C@](c1ccccc1)(c1nnc(C[N+]23CCC(CC2)[C@H](CSc2ccccc2)C3)o1)C1CCCCC1 [Example 121, (S)-1-[5-((R)—Cyclohexyl-hydroxy-phenyl-methyl)-[1,3,4]oxadiazol-2-ylmethyl]-3-phenylsulfanylmethyl-1-azonia-bicyclo[2.2.2]octane; bromide]	< 5 nM
O[C@](c1ccccc1)(c1ncc(C[N+]23CCC(CC2)[C@@H](OCc2ccsc2)C3)o1)C1CCCCC1 [Example 46, (R)-1-[2-((A)-Cyclohexyl-hydroxy-phenyl-methyl)-oxazol-5-ylmethyl]-3-(thiophen-3-ylmethoxy)-1-azonia-bicyclo[2.2.2]octane; bromide]	< 5 nM
O[C@](c1ccccc1)(c1ncc(C[N+]23CCC(CC2)[C@@H](OCc2ccc(F)cc2)C3)o1)C1CCCCC1 [Example 32, (R)-1-[2-((R)—Cyclohexyl-hydroxy-phenyl-methyl)-oxazol-5-ylmethyl]-3-(4-fluoro-benzyloxy)-1-azonia-bicyclo[2.2.2]octane; bromide]	< 5 nM
N#Cc1cccc(O[C@H]2C[N+]3(Cc4cnc(C(O)(c5ccccc5)c5ccccc5)o4)CCC2CC3)c1 [Example 80, (R)-3-(3-cyano-phenoxy)-1-[2-(hydroxy-diphenyl-methyl)-oxazol-5-ylmethyl]-1-azonia-bicyclo[2.2.2]octane; bromide]	< 5 nM
Cc1ccc(O[C@H]2C[N+]3(Cc4nc(C(O)(c5ccccc5)c5ccccc5)no4)CCC2CC3)cc1Cl [Example 104, (R)-3-(3-Chloro-4-methyl-phenoxy)-1-[3-(hydroxy-diphenyl-methyl)-[1,2,4]oxadiazol-5-ylmethyl]-1-azonia-bicyclo[2.2.2]octane; chloride]	< 5 nM
O[C@@](c1ccccc1)(c1ncc(C[N+]23CCC(CC2)[C@H](Oc2ccccc2)C3)o1)C1CCCCC1 [Example 6, (S)-1-[2-((S)—Cyclohexyl-hydroxy-phenyl-methyl)-oxazol-5-ylmethyl]-3-phenoxy-1-azonia-bicyclo[2.2.2]octane bromide]	> 20 nM
O[C@](c1ccccc1)(c1ncc(C[N+]23CCC(CC2)C(COc2ccc(F)cc2)C3)o1)C1CCCCC1 (single isomer, unassigned) [Example 87]	< 5 nM
OC(c1ccccc1)(c1ccccc1)c1noc(C[N+]23CCC(CC2)[C@H](COc2ccccc2)C3)n1 [Example 93, (S)-1-[3-(Hydroxy-diphenyl-methyl)-[1,2,4]oxadiazol-5-ylmethyl]-3-phenoxymethyl-1-azonia-bicyclo[2.2.2]octane; chloride]	< 5 nM
O[C@](c1ccccc1)(c1ncc(C[N+]23CCC(CC2)[C@@H](Oc2ccc(Cl)cc2)C3)o1)C1CCCCC1 [Example 64, (R)-3-(4-Chloro-phenoxy)-1-[2-((R)-cyclohexyl-hydroxy-phenyl-methyl)-oxazol-5-ylmethyl]-1-azonia-bicyclo[2.2.2]octane; bromide]	< 5 nM
C/C=C/CO[C@H]1C[N+]2(Cc3cnc([C@](O)(c4ccccc4)C4CCCCC4)o3)CCC1CC2 [Example 113, (R)-3-[((E)-But-2-enyl)oxy]-1-[2-((R)-cyclohexyl-hydroxy-phenyl-methyl)-oxazol-5-ylmethyl]-1-azonia-bicyclo[2.2.2]octane; bromide]	< 5 nM
O[C@](c1ccccc1)(c1nnc(C[N+]23CCC(CC2)[C@@H](Oc2cccc(F)c2)C3)o1)C1CCCCC1 [Example 134, (R)-1-[5-((R)—Cyclohexyl-hydroxy-phenyl-methyl)-[1,3,4]oxadiazol-2-ylmethyl]-3-(3-fluoro-phenoxy)-1-azonia-bicyclo[2.2.2]octane; bromide]	< 5 nM
O[C@](c1ccccc1)(c1ncc(C[N+]23CCC(CC2)[C@H](Oc2ccccc2)C3)o1)C1CCCCC1 [Example 8, (S)-1-[2-((R)—Cyclohexyl-hydroxy-phenyl-methyl)-oxazol-5-ylmethyl]-3-phenoxy-1-azonia-bicyclo[2.2.2]octane; bromide]	5 to 20 nM
OC(c1ccccc1)(c1cc(C[N+]23CCC(CC2)[C@@H](CSc2ccccc2)C3)on1)C1CCCCC1 (single isomer, unassigned) [Example 124]	< 5 nM
O[C@](c1ccccc1)(c1ncc(C[N+]23CCC(CC2)[C@@H](OC2CCCCO2)C3)o1)C1CCCCC1 (stereo partly drawn) [Example 96, (R)-1-[2-((R)—Cyclohexyl-hydroxy-phenyl-methyl)-oxazol-5-ylmethyl]-3-(tetrahydro-pyran-2-yloxy)-1-azonia-bicyclo[2.2.2]octane; bromide]	< 5 nM
OC(c1ccccc1)(c1cc(C[N+]23CCC(CC2)[C@@H](OCc2ccccc2)C3)on1)C1CCCCC1 (single isomer, unassigned) [Example 31, formate]	< 5 nM
O[C@](c1ccccc1)(c1nnc(C[N+]23CCC(CC2)[C@@H](Sc2ccccc2)C3)o1)C1CCCCC1 [Example 71, 1-[5-((R)—Cyclohexyl-hydroxy-phenyl-methyl)-[1,3,4]oxadiazol-2-ylmethyl]-3-phenylsulfanyl-1-azonia-bicyclo[2.2.2]octane; bromide]	< 5 nM

Source: patent publication US20100056565A1, “Heterocyclic Derivatives as M3 Muscarinic Receptors” (priority 2007, published 2010)
